Laboratory results reported in US20080306230A1, “Composition and Associated Method” (GENERAL ELECTRIC COMPANY, priority 2007, published 2008).

Assay: Solubility of the product as observed
Type: physicochemical
Conditions: in words; water or methanol
Description: 5-norbornene-2-methanol (CAS 95-12-5, 1 gram) and sodium hydride (NaH, 60% dispersion in mineral oil, 0.6 grams) are dissolved in 50 milliliters of anhydrous THF. The mixture is refluxed overnight at 80 degrees C. After refluxing, 1,3-propane sultone (CAS 1120-71-4, 0.98 grams) in 20 milliliters of THF is added to the mixture in 10 minutes. After 5 hours, the solvent is removed by rotary evaporation and the reaction product is purified by column chromatography using silica and ethyl acetate/methanol (4:1) as eluent. […] The product yield is about 60 weight percent.
A ruthenium metal complex 1,3-bis(2,4,6-trimethylphenyl)-2-imidazolidinylidene)dichloro(phenylmethylene)(tricyclohexylphosphine)ruthenium (CAS No. 246047-72-3, 5 milligrams) is charged in a HPLC flask and the flask is degassed and purged with argon three times. Methylene chloride (CH2Cl2, 50 microliters) is injected into the flask using a syringe. The metal complex solution is cooled at −78 degrees Celsius in a dry ice and acetone bath. Norbornene sulfonate (10 milligrams, Sample 1 from Example 1) is charged into a second flask and degassed and the flask is backfilled with argon three times. Degassed methanol (500 microliters) is added to norbornene sulfonate using a syringe. The resulting mixture is also cooled at −78 degrees Celsius. […]

For O=S(=O)([O-])C1CC2C=CC1C2.[Na+] (stereo not shown) [Sample 1, norbornene-sodium sulfonate], the solubility was “soluble in water or methanol”.
